Results taken from US20250145627A1, “METTL3 Inhibitor and Composition, and Application of Same in Medicine” (XIZANG HAISCO PHARMACEUTICAL CO., LTD., priority 2022, published 2025).
pIC50: −log10 of the molar value. Where two headings read alike, the source gives them in different places.

Columns and labels:
MOLM-13 cells = assay: Cell proliferation test on MOLM-13 cells (Cellriter-Glo); assay type: cell-based; conditions: Homo sapiens
Experimental: Cell plating: Cells were plated when they grow to a logarithmic growth phase. The cells were collected and the cell density was adjusted to 6×10^4 cells/mL; then the cell suspension is then poured into a loading slot and added into a 96-well cell culture plate at 50 μL/well (3000 cells/well viable cells). Note: the cells in the loading slot were well mixed while plating; cell information and plating date were labeled on the 96-well plates. NC wells (control wells) and BG wells (background wells) were provided. […] 50 μL/well of the compounds were added to the 96-well plate in which the cells were already plated. Incubation was carried out at 37° C., 5% CO2 for a period of time. Cell proliferation test: After incubation in the incubator for a period of time, 50 μL of […]-Glo Reagent per well was added. The plate was shaken at room temperature (500 rpm), incubated for 10 min in the dark, and then the […] was measured with a microplate reader. The mean background value was calculated. [formula] […] Specific data were presented in the form of graphs.

[1] = Pharmacokinetic test in mice; assay type: in vivo; conditions: male C57 mice, plasma
Experimental: • 2.1 Experimental animals: male C57 mice, 18-20 g, 6 mice/compound or 12 mice/compound. • 2.2 Experimental design: the C57 mice were randomly grouped according to their body weights. The animals were fasted with water available for 12 to 14 h one day before the administration, and were fed 4 h after the administration.
Vehicle for intravenous administration: 5% DMA+5% Solutol+90% Saline; vehicle for intragastric administration: 0.5% MC; • (DMA: dimethylacetamide; Solutol: polyethylene glycol-15-hydroxystearate; Saline: physiological saline; MC: Methyl cellulose solution)
Before and after the administration, 0.06 mL of blood was taken from the orbit of the animals under isoflurane anesthesia and placed in an EDTAK2 centrifuge tube. The blood was centrifuged at 5000 rpm and 4° C. for 10 min to collect the plasma. The blood collection time points for the intravenous administration group and intragastric administration group were 0 min, 5 min, 15 min, 30 min, 1 h, 2 h, 4 h, 7 h and 24 h. Before analysis and detection, all samples were stored at −80° C.

[2] = target: T1, hERG potassium ion channel (Homo sapiens, UniProt Q12809); assay: Test for hERG potassium ion channel (manual patch-clamp, CHO cells); assay type: cell-based; conditions: CHO cells stably expressing hERG, whole cell patch-clamp, room temperature; read-out: IC50 for the inhibitory effect on hERG potassium channel current
T1 construct: expressed in transfected cells
Excerpt: Experimental platform: electrophysiological manual patch-clamp system Cell line: Chinese hamster ovary (CHO) cell lines stably expressing hERG potassium ion channel
Experimental method: in CHO (Chinese Hamster Ovary) cells stably expressing hERG potassium channel, whole cell patch-clamp technique was used to record hERG potassium channel current at room temperature. The glass microelectrode was made of a glass electrode blank (BF150-86-10, Sutter) by a puller. The tip resistance after filling the liquid in the electrode was about 2-5 MO. The glass microelectrode can be connected to the patch-clamp amplifier by inserting the glass microelectrode into an amplifier probe. The clamping voltage and data recording were controlled and recorded by the pClamp 10 software through a computer. The sampling frequency was 10 kHz, and the filtering frequency was 2 kHz. […]
Data processing: Data analysis processing was carried out by using pClamp 10, GraphPad Prism 5 and Excel software. The inhibition degree of hERG potassium current (peak value of hERG tail current induced at −50 mV) at different compound concentrations was calculated by the following formula: […]
Compound IC50 was calculated using GraphPad Prism 5 software by fitting according to the following equation: […]

[3] = MOLM-13, read-out: IC50 on MOLM-13 cells
[4] = MOLM-13 cells, maximum detection concentration 10 μM, read-out: IC50 of compounds on MOLM-13 cells

T1 sequence (Q12809 whole entry): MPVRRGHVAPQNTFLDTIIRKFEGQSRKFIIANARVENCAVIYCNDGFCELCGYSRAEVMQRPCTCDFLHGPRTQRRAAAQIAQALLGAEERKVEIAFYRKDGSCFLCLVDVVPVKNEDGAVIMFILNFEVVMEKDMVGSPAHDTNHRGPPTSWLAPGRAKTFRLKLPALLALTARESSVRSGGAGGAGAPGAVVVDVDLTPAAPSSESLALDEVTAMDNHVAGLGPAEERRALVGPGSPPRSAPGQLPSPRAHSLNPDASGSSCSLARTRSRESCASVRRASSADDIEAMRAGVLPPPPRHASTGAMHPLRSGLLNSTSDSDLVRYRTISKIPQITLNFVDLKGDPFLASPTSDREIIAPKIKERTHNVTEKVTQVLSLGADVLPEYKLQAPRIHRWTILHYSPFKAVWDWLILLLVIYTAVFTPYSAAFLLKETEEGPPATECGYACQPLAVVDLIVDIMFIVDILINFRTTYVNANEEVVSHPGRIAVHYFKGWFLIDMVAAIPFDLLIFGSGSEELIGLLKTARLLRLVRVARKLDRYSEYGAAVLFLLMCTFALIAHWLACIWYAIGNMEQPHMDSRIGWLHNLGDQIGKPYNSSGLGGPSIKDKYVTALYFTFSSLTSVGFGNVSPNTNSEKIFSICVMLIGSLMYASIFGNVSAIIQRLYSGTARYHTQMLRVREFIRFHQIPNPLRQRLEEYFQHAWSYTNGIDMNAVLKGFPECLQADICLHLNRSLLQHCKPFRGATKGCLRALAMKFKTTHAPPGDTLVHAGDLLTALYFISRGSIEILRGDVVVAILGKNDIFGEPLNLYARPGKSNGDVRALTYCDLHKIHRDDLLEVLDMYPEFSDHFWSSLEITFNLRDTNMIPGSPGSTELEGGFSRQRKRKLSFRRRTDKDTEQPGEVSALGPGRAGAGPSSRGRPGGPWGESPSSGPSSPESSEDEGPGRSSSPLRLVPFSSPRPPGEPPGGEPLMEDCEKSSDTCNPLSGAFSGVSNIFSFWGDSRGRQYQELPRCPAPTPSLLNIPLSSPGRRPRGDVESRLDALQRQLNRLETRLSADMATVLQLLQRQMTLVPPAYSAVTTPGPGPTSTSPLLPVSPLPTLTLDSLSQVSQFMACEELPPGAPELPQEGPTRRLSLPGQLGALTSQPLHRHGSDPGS

SMILES	pIC50 (MOLM-13 cells; [4])	also measured
O=C(NCc1ccc2cc(CNCC34CC(F)(C3)C4)[nH]c2c1)c1cc(=O)n2ccccc2n1 [Compound 23 in WO 2021111124]	–	F ([1]; i.g. 10 mg/kg): 31.6%; AUC(0-t) ([1]; mouse, iv, i.v. 2.5 mg/kg): 730 ng·h/mL; clearance ([1]; mouse, iv, i.v. 2.5 mg/kg): 57 mL/min/kg; Vd ([1]; mouse, iv, i.v. 2.5 mg/kg, read-out: Vdss): 2.21 L/kg; AUC(0-t) ([1]; mouse, po, i.g. 10 mg/kg): 923 ng·h/mL
CC(C)n1ccn2c(=O)cc(C(=O)NCc3ccc4cc(CNCC5CCC5)[nH]c4c3)nc12 [Trifluoroacetate of compound 6]	5.00 to 5.70	–
CCn1ccn2c(=O)cc(C(=O)NCc3ccc4cc(CNCC56CC(F)(C5)C6)[nH]c4c3)nc12 [Trifluoroacetate of compound 8]	–	pIC50 (MOLM-13 cells; MOLM-13, read-out: IC50 of compounds on MOLM-13 cells): > 5.70
CCn1ccn2c(=O)cc(C(=O)NCc3ccc4cc(CNCC5CCC5)[nH]c4c3)nc12 [Trifluoroacetate of compound 9]	5.00 to 5.70	–
O=C(NCc1ccc2cc(CNCC3CCC3)[nH]c2c1)c1cc(=O)n2ccn(C3CC3)c2n1 [Trifluoroacetate of compound 11]	5.00 to 5.70	–
O=C(NCc1cc2[nH]c(CNCC34CC(F)(C3)C4)cc2s1)c1cc(=O)n2ccn(C(F)F)c2n1 [Trifluoroacetate of compound 14]	5.00 to 5.70	–
O=C(NCc1cc2[nH]c(CNCC3CCC3)cc2s1)c1cc(=O)n2cc(F)ccc2n1 [Trifluoroacetate of compound 16]	5.00 to 5.70	–
O=C(NCc1cc2[nH]c(CNCC3CCC3)cc2s1)c1cc(=O)n2ccc(C3CC3)cc2n1 [Trifluoroacetate of compound 17]	5.00 to 5.70	–

The next lines start with results.

pIC50 (MOLM-13 cells; [4])	SMILES	also measured
> 5.70	Cn1ccn2c(=O)cc(C(=O)NCc3ccc4cc(CNCC56CC(F)(C5)C6)[nH]c4c3)nc12 [Compound 3]	pIC50 (MOLM-13 cells; [3]): 6.64
> 5.70	[2H]C([2H])([2H])n1ccn2c(=O)cc(C(=O)NCc3ccc4cc(CNCC56CC(F)(C5)C6)[nH]c4c3)nc12 [Compound 4]	pIC50 (MOLM-13 cells; [3]): 6.80
5.00 to 5.70	O=C(NCc1cc2[nH]c(CNCC3CCC3)cc2s1)c1cc(=O)n2cccc(F)c2n1 [Compound 18]	–
5.00 to 5.70	O=C(NCc1cc2[nH]c(CNC3CCCCC3)cc2s1)c1cc(=O)n2ccccc2n1 [Compound 20]	–
5.00 to 5.70	CC(C)(C)CNCc1cc2sc(CNC(=O)c3cc(=O)n4ccccc4n3)cc2[nH]1 [Compound 22]	–
> 5.70	Cn1ccn2c(=O)cc(C(=O)NCc3ccc4cc(CNCC5CCC5)[nH]c4c3)nc12 [Trifluoroacetate of compound 1]	–
5.00 to 5.70	O=C(NCc1ccc2cc(CNCC3CCC3)[nH]c2c1)c1cc(=O)n2cc[nH]c2n1 [Trifluoroacetate of compound 2]	–
5.00 to 5.70	O=C(NCc1ccc2cc(CNCC3CCC3)[nH]c2c1)c1cc(=O)n2ccn(CC3CC3)c2n1 [Trifluoroacetate of compound 5]	–
> 5.70	C#CCn1ccn2c(=O)cc(C(=O)NCc3ccc4cc(CNCC5CCC5)[nH]c4c3)nc12 [Trifluoroacetate of compound 10]	–
> 5.70	O=C(NCc1cc2[nH]c(CNCC3CCC3)cc2s1)c1cc(=O)n2ccccc2n1 [Trifluoroacetate of compound 12]	pIC50 [2]: < 4.52
